Article PMC10721329, “Quisinostat is a brain-penetrant radiosensitizer in glioblastoma” (JCI Insight, 2023)
“And” between values parts separate entries of the source, which are not always exact repeats. Equal values may be shown once. Read-outs that look alike come from different tables or passages of the source.

How the values were obtained:
[1] = Total QST levels in plasma and flank tumors (LC-MS/MS); type: in vivo; details: athymic nude, mouse, 10 mg/kg
Protocol: QST concentrations in specimens were measured using reverse-phase LC on the AB SCIEX QTRAP6500+ LC-MS/MS system by operating electrospray in the positive ion mode. For liquid chromatographic separation, gradient elution was performed using a Phenomenex Kinetex F5 100 Å column (100 × 2.1 mm, 2.6 μm). The initial composition of the mobile phase was 70% phase A (0.1% formic acid in water) and 30% phase B (0.1% formic acid in 1:1 acetonitrile/methanol) with a 0.35 mL/min flow rate. Gradient elution was achieved as follows: mobile phase (B) was maintained at 30% from 0 to 0.3 minutes, increased to 95% from 0.3 to 0.8 minutes, maintained at 95% from 0.8 to 2.5 minutes, and decreased to 30% from 2.5 to 2.8 minutes. The total run time was 3.5 minutes. The internal standard used in this study was D8-infigratinib. The retention times for QST and D8-infigratinib were 1.6 and 1.8 minutes, respectively. Mass-to-charge ratio transitions were as follows: 395.20 → 144.00 (QST) and 568.08 → 321.00 (D8-infigratinib). LC-MS/MS analysis was performed using an Analyst 1.7 Chromatographic Data System. See Supplemental Methods for detailed PK experiments. […]
treated with 2 Gy of ionizing radiation on MWF for a total 6 Gy (3 doses). Ionizing radiation was administered with the RS2000 series biological research irradiator (Rad Source Technologies).
Treatment of Flank-Implanted Mice with QST and/or Radiation
Implanted flank tumors were allowed to grow until the tumor size reached 100 mm3 volume. Mice were randomized into groups before treatment and underwent treatment on MWF for the entire duration of the experiment until the tumor volumes exceeded 2000 mm3. Treatment groups included vehicle (50% PEG-300), QST alone (10 mg/kg), flank IR treatment with vehicle (2 Gy), and flank IR treatment (2 Gy) with QST (10 mg/kg). For mice receiving IR treatment with or without QST, mice were treated with 2 Gy on MWF for a total 6 Gy during the first week of treatment. QST was administered to mice through intraperitoneal injections 2 hours before flank tumor radiation treatment. Upon completion of the radiation regimen, IR-treated mice subsequently received QST or vehicle alone for the rest of the experiment. Tumor growth and treatment response were monitored by manually measuring the tumor area twice per week starting at 13 days after implantation. Upon reaching the tumor volume threshold (2000 mm3), mice were sacrificed, and plasma and tissue samples were harvested for PD and PK analyses 2 hours after treatment with a final dose of QST (10 mg/kg). […]
Calibration Standards and Quality Control Samples
Stock solutions of standard (1 mM QST) and IS (250 µM D8-infigratinib) were prepared in acetonitrile. Working solutions for calibration curve standards and quality controls (QCs) were prepared by dilutions with a 40% methanol mixture aqueous solution. The IS precipitation solution (10 nM) was prepared from the IS stock solutions by dilution with methanol. Calibration standards and batch qualifying QCs were freshly spiked for every batch. For sample analysis in human and mouse matrices, calibration standards were prepared in bulk by spiking appropriate amounts of working solutions into blank human plasma, used as a surrogate matrix due to the instability of QST in mouse plasma. For sample analysis in neural stem cell media and cell lysate, calibration standards were prepared in bulk by spiking appropriate amounts of working solutions into neural stem cell media. QC samples were prepared in bulk by spiking appropriate amounts of working solutions into blank mouse plasma or cell media. Preparation of calibration standards and QC samples was performed at 4 °C. Final concentrations range of the calibration standards were 1–1000 nM in human plasma or neural stem cell media. Three QC levels (low, medium, and high) were used during all sample analyses. The concentrations of QC samples in various matrices were 3 nM (low QC), 22 nM (medium QC), and 800 nM (high QC). All stock […]

orthotopic GB126 tumors = test: RT-qPCR of neuronal genes in GB126 tumors; type: in vivo, athymic nude mice; details: relative to Vehicle mouse 1 = 1, individual mice
Protocol: Reverse Transcription Quantitative Polymerase Chain Reaction
Total RNA was extracted from orthotopic tumors by using the RNeasy Mini Kit (Qiagen) in accordance with the manufacturer’s instructions. RNA was quantified on a NanoDrop Spectrophotometer ([…]), and 1 μg of total RNA was used for complementary DNA synthesis by using the SuperScript VILO kit (Life Technologies). Quantitative polymerase chain reaction was performed using inventoried TaqMan assays for respective target genes and housekeeping control genes (18S) on the QuantStudio 6 Flex Real -Time PCR System (Life Technologies).
Fold change in gene expression was analyzed using the delta delta Ct method.

Cn1cc(CNCC2CCN(c3ncc(C(=O)NO)cn3)CC2)c2ccccc21 [QST, quisinostat]
concentration at 2 h ([1]; flank tumor, intraperitoneal, Combination (QST+IR) cohort, read-out: [QST] total, flank tumor, Mean): 501 nM | concentration at 2 h ([1]; flank tumor, intraperitoneal, QST monotherapy cohort, read-out: [QST] total, flank tumor, Mean): 479 nM | concentration at 2 h ([1]; flank tumor, ip, QST- and combination-treated mice, 10 mg/kg IP, 2 hours after final dose, read-out: mean total QST concentration in flank tumors): ~433 nM | concentration at 2 h ([1]; plasma, intraperitoneal, Combination (QST+IR) cohort, read-out: [QST] total, plasma, Mean): 276 nM | concentration at 2 h ([1]; plasma, intraperitoneal, QST monotherapy cohort, read-out: [QST] total, plasma, Mean): 250 nM | concentration at 2 h ([1]; plasma, ip, QST- and combination-treated mice, 10 mg/kg IP, 2 hours after final dose, read-out: mean total QST concentration in plasma): ~300 nM | qPCR CECR2 expression (orthotopic GB126 tumors; Combo (QST + IR)): 90.297 and 227.304 and 107.431 | qPCR GABRA2 expression (orthotopic GB126 tumors; Combo (QST + IR)): 62.6009 and 92.8255 and 56.6887 | qPCR SCN3A expression (orthotopic GB126 tumors; Combo (QST + IR)): 28.0147 and 63.295 and 75.3722 | qPCR BDNF expression (orthotopic GB126 tumors; QST + IR): 14.0587 and 9.35 and 2.8459 | qPCR KCNQ3 expression (orthotopic GB126 tumors; QST + IR): 9.67 and 10.8552 and 27.8625 | qPCR NGFR expression (orthotopic GB126 tumors; QST + IR): 3.525 and 9.249 and 10.5627 | qPCR BDNF expression (orthotopic GB126 tumors; QST): 5.022 and 6.518 and 12.9199 | qPCR CECR2 expression (orthotopic GB126 tumors; QST): 38.4564 and 79.55 and 112.554 | qPCR GABRA2 expression (orthotopic GB126 tumors; QST): 1.543 and 82.6227 and 31.8541 | qPCR KCNQ3 expression (orthotopic GB126 tumors; QST): 1.23 and 4.886 and 2.677 | qPCR NGFR expression (orthotopic GB126 tumors; QST): 13.22 and 5.955 and 12.7613 | qPCR SCN3A expression (orthotopic GB126 tumors; QST): 6.113 and 76.4987 and 9.293
